Measurements taken from patent US9670170B2, “Resorufin derivatives for treatment of oxidative stress disorders” (BioElectron Technology Corporation, priority 2013, dated 2017).

Tested on: FRDA fibroblasts
Experiment: Rescue of BSO-stressed human dermal fibroblasts from Friedreich's Ataxia patients (Calcein AM viability)
Format: cell-based
Details: Homo sapiens, GM04078, 48 h, read-out: Ec50 Average
Method: An initial screen was performed to identify compounds effective for the amelioration of redox disorders. Test samples, 4 reference compounds (idebenone, decylubiquinone, Trolox and alpha-tocopherol), and solvent controls were tested for their ability to rescue FRDA fibroblasts stressed by addition of L-buthionine-(S,R)-sulfoximine (BSO), as described in Jauslin et al., Hum. Mol. Genet. 11(24):3055 (2002), Jauslin et al., FASEB J. 17:1972-4 (2003), and International Patent Application WO 2004/003565. […] This specific BSO-mediated cell death can be prevented by administration of antioxidants or molecules involved in the antioxidant pathway, such as alpha-tocopherol, selenium, or small molecule glutathione peroxidase mimetics. However, antioxidants differ in their potency, i.e. the concentration at which they are able to rescue BSO-stressed FRDA fibroblasts.
MEM (a medium enriched in amino acids and vitamins, catalog no. 1-31F24-I) and Medium 199 (M199, catalog no. 1-21F22-I) with Earle's Balanced Salts, without phenol red, were purchased from Bioconcept. Fetal Calf Serum was obtained from PAA Laboratories. Basic fibroblast growth factor and epidermal growth factor were purchased from PeproTech. Penicillin-streptomycin-glutamine mix, L-buthionine (S,R)-sulfoximine, (+)-alpha-tocopherol, decylubiquinone, and insulin from bovine pancreas were purchased from Sigma. Trolox (6-Hydroxy-2,5,7,8-tetramethylchromane-2-carboxylic acid) was obtained from Fluka. Idebenone was obtained from Chemo Iberica. Calcein AM was purchased from Anaspec. Cell culture medium was made by combining 125 ml M199 EBS, 50 ml Fetal Calf Serum, 100 U/ml penicillin, 100 microgram/ml streptomycin, 2 mM glutamine, 10 microgram/ml insulin, 10 ng/ml EGF, and 10 ng/ml bFGF; MEM EBS was added to make the volume up to 500 ml. A 10 mM BSO solution was prepared by dissolving 444 mg BSO in 200 ml of medium (Invitrogen, Carlsbad, Ca.) with subsequent filter-sterilization. During the course of the experiments, this solution was stored at +4° C. The cells were obtained from the Coriell Cell Repositories (Camden, N.J.; repository number GM04078) and grown in 10 cm tissue culture plates. Every third day, they were split at a 1:3 ratio.
The test samples were supplied in 1.5 ml glass vials. The compounds were diluted with DMSO, ethanol or PBS to result in a 5 mM stock solution. Once dissolved, they were stored at −20° C. Reference antioxidants (idebenone, decylubiquinone, alpha-tocopherol and Trolox) were dissolved in DMSO.
Test samples were screened according to the following protocol:
A culture with FRDA fibroblasts was started from a 1 ml vial with approximately 500,000 cells stored in liquid nitrogen. Cells were propagated in 10 cm cell culture dishes by splitting every third day in a ratio of 1:3 until nine plates were available. Once confluent, fibroblasts were harvested. For 54 micro titer plates (96 well-MTP) a total of 14.3 million cells (passage eight) were re-suspended in 480 ml medium, corresponding to 100 microliters medium with 3,000 cells/well. The remaining cells were distributed in 10 cm cell culture plates (500,000 cells/plate) for propagation. The plates were incubated overnight at 37° C. in a atmosphere with 95% humidity and 5% CO2 to allow attachment of the cells to the culture plate.
10% DMSO (242.5 microliters) was added to a well of the microtiter plate. The test compounds were unfrozen, and 7.5 microliters of a 5 mM stock solution was dissolved in the well containing 242.5 microliters of 10% DMSO, resulting in a 150 micromolar master solution. Serial dilutions from the master solution were made. The period between the single dilution steps was kept as short as possible (generally less than 30 seconds). At least 4 hours after attachment into MTP, cells were then treated with the various compound dilutions.
Plates were kept overnight in the cell culture incubator. […]

`O=c1ccc2nc3ccc(OCc4ccccc4)cc3oc-2c1` [Compound 1] was tested. Which EC50 did it give?
The EC50 was 1 nM.

For `COc1ccc2nc3ccc(=O)cc-3oc2c1` [Compound 3], which EC50 is on record?
Its EC50 is 1 nM.

How did the EC50 turn out when `O=c1ccc2nc3ccc(O)cc3oc-2c1` [Compound 4] was run?
The EC50 was 84 nM.

With `CCOc1ccc2nc3ccc(=O)cc-3oc2c1` [Compound 5] as the molecule, how does the EC50 read?
The EC50 was 0.8 nM.

Same assay, conditions: Homo sapiens; compounds of the invention; FRDA fibroblasts (GM04078), 1 mM BSO, 48 h; tested three times; read-out: Ec50 Average

`COc1c2nc3ccc(C)cc3oc-2c(C)c(=O)c1OC` [Compound 6] was tested. Which EC50 did it give?
Its EC50 is 2 nM.

With `COCCN(C)C(=O)c1ccc2nc3c(C)c(C)c(=O)c(C)c-3oc2c1` [Compound 7] as the molecule, how does the EC50 read?
The EC50 was 2 nM.

How did the EC50 turn out when `Cc1c2nc3ccc(C(=O)NCCN4CCOCC4)cc3oc-2c(C)c(=O)c1C` [Compound 8] was run?
Its EC50 is 3 nM.

For `Cc1ccc2nc3c(C)c(C)c(=O)c(C)c-3oc2c1C` [Compound 9], which EC50 is on record?
The EC50 was 4 nM.

How did the EC50 turn out when `Cc1c2nc3ccc(C(=O)NCCCO)cc3oc-2c(C)c(=O)c1C` [Compound 10] was run?
The EC50 was 5 nM.

For `Cc1ccc2nc3c(C)c(C)c(=O)c(C)c-3oc2c1` [Compound 11], which EC50 is on record?
Its EC50 is 5 nM.

Which EC50 does the source give for `COCCNC(=O)c1ccc2nc3c(C)c(C)c(=O)c(C)c-3oc2c1` [Compound 12] here?
Its EC50 is 6 nM.

How did the EC50 turn out when `COc1ccc2nc3c(OC)c(OC)c(=O)c(C)c-3oc2c1` [Compound 13] was run?
The EC50 was 12 nM.

With `O=c1ccc2nc3ccc(O[C@@H]4O[C@H](CO)[C@H](O)[C@H](O)[C@H]4O)cc3oc-2c1` [Compound 14] as the molecule, how does the EC50 read?
The EC50 was 16 nM.

`COCCOCCOCCOCCNC(=O)c1ccc2nc3c(C)c(C)c(=O)c(C)c-3oc2c1` [Compound 15] was tested. Which EC50 did it give?
Its EC50 is 17 nM.

How did the EC50 turn out when `Cc1c2nc3ccc(C(F)(F)F)cc3oc-2c(C)c(=O)c1C` [Compound 17] was run?
Its EC50 is 23 nM.

For `Cc1c2nc3ccc(C(=O)NCCc4ccccc4)cc3oc-2c(C)c(=O)c1C` [Compound 19], which EC50 is on record?
Its EC50 is 25 nM.

`Cc1cc(C)c2nc3c(C)c(C)c(=O)c(C)c-3oc2c1` [Compound 20] was tested. Which EC50 did it give?
The EC50 was 26 nM.

For `COC(=O)c1ccc2nc3c(C)c(C)c(=O)c(C)c-3oc2c1` [Compound 21], which EC50 is on record?
The EC50 was 50 nM.

For `Cc1c2nc3cc(C(F)(F)F)ccc3oc-2c(C)c(=O)c1C` [Compound 22], which EC50 is on record?
Its EC50 is 54 nM.

`Cc1cc2oc3c(C)c(=O)c(C)c(C)c-3nc2cc1S(C)(=O)=O` [Compound 23] was tested. Which EC50 did it give?
Its EC50 is 234 nM.

Same assay, conditions: control compounds; FRDA fibroblasts (GM04078), 1 mM BSO, 48 h; average of three values; read-out: EC50 Average

`Cc1c(C)c2c(c(C)c1O)CC[C@@](C)(CCC[C@H](C)CCC[C@H](C)CCCC(C)C)O2` [alpha-tocopherol, reference compound] was tested. Which EC50 did it give?
The EC50 was 300 nM.

Same assay, conditions: control compounds; FRDA fibroblasts (GM04078), 1 mM BSO, 48 h; first of three experiments; read-out: EC50 Value 1

For `Cc1c(C)c2c(c(C)c1O)CC[C@@](C)(CCC[C@H](C)CCC[C@H](C)CCCC(C)C)O2` [alpha-tocopherol, reference compound], which EC50 is on record?
The EC50 was 400 nM.

Same assay, conditions: control compounds; FRDA fibroblasts (GM04078), 1 mM BSO, 48 h; second of three experiments; read-out: EC50 Value 2

Which EC50 does the source give for `Cc1c(C)c2c(c(C)c1O)CC[C@@](C)(CCC[C@H](C)CCC[C@H](C)CCCC(C)C)O2` [alpha-tocopherol, reference compound] here?
Its EC50 is 150 nM.

Same assay, conditions: control compounds; FRDA fibroblasts (GM04078), 1 mM BSO, 48 h; third of three experiments; read-out: EC50 Value 3

For `Cc1c(C)c2c(c(C)c1O)CC[C@@](C)(CCC[C@H](C)CCC[C@H](C)CCCC(C)C)O2` [alpha-tocopherol, reference compound], which EC50 is on record?
Its EC50 is 350 nM.
